# Measurements taken from PMC7413516, “Antidepressant-like activity and safety profile evaluation of 1H-imidazo[2,1-f]purine-2,4(3H,8H)-dione derivatives as 5-HT1A receptor partial agonists” (PLoS ONE, 2020).
# Like-named read-outs stand apart in the source and are kept apart here.
# Test: Pharmacokinetic study in mice, plasma and brain structures, LC/MS/MS
# Assay type: in vivo, Swiss albino mice
# Settings: Swiss albino, mouse, ip, 0.625 mg/kg i.p.
# Description: Blood samples from the Swiss albino mice were collected at 0 (pre-dose), 5, 15, 30, 60, 120, 240 and 480 min after a compound administration. The blood samples and brain structures were collected under general anesthesia induced by i.p. injection of 50 mg/kg ketamine plus 8 mg/kg xylazine. The blood samples were taken into heparinized tubes, immediately centrifuged at 1000 × g for 10 min, and plasma was collected. The plasma samples and brain structures were immediately frozen at -30°C and -80°C, respectively.
# The plasma and tissue sample pretreatment procedure involved acetonitrile precipitation. A 5 μL aliquot of the IS working solution (100 ng/mL) was added to 50 μL of the collected mouse plasma sample, which was then vortex-mixed for 10 seconds. Thereafter, 200 μL of acetonitrile was added, vortexed during 20 min, and then centrifuged (1000 × g, 10 min). The supernatant (100 μL) was then transferred to insert placed in an autosampler vial, and a 10 μL volume of this was injected onto the HPLC column. Tissue samples were thawed before use, and whole hippocampus, striatum and frontal cortex were weighted and placed in a glass mortar and pestle tissue grinder and homogenized with an appropriate amount of phosphate buffer (pH 7.4) in 1:5 ratio. Afterward, 50 μL of tissue homogenates were transferred to new Eppendorf tubes and spiked with 5 μL of the internal standard working solution. All samples were stored on ice during the preparation process. This was followed by procedures like those described above.
# The LC/ESI-MS/MS experiments were performed on an Applied Biosystems/MDS Sciex (Concord, Ontario, Canada) API 2000 triple quadrupole mass spectrometer equipped with an electrospray (ESI) ionization interface. This instrument was coupled to an Agilent 1100 (Agilent Technologies, Waldbronn, Germany) LC system. Data acquisition and processing were accomplished using Sciex Analyst 1.4.2 data collection and integration software.
# An XBridge C18 (2.1 x 30 mm, 3.5 μm) analytical column (Waters, Milford, Massachusetts, USA) was used for compound separation. The temperatures of the column thermostat and the autosampler were set at 25°C and 10°C, respectively. The mobile phase consisted of a mixture of acetonitrile with addition of 0.1% formic acid (solvent A) and water with addition of 0.1% formic acid (solvent B) and was set at a flow rate of 0.6 mL/min. Starting amount of solvent A is 10%, isocratic elution from 0 to 3 min, and then gradient up to 90% of solvent A, and maintained to 10 min, and then gradient down to 10% of solvent A, and maintained to 15 min.
# The ion source parameters were as follows: ion spray voltage: 5500 V; nebulizer gas (gas 1): 20 psi; turbo gas (gas 2): 25 psi; temperature of the heated nebulizer: 400°C; curtain gas: 40 psi; collision gas: 6 psi. Mass spectra were acquired by SRM with precursor/predominant product ion transitions for each analyte. The mass spectral Q1→Q3 transitions monitored for AZ-853, AZ-861 and for IS (nebivolol), were m/z 453.9→235.1; 504.3→285.1 and 406.2→151.1, respectively. The peak widths of precursor and product ions were set to 0.7 full width half-height. Quantification was done via peak area ratio.
# Pharmacokinetic parameters were calculated by a non-compartmental approach from the average concentration values, using Phoenix WinNonlin software (Certara, Princeton, NJ 08540 USA). First order elimination rate constant (λz) was calculated by linear regression of time versus log concentration. Next, the area under the mean serum and tissue concentration versus time curve (AUC0→t) was estimated using the log-linear trapezoidal rule (1), where Ci is the plasma concentration measured at t1.
# AUC0→t=∑i=1n((Ci+Ci+1)/2)∙(ti+1−ti). (1)
# Area under the first-moment curve (AUMC0→t) was estimated by calculation of the total area under the first-moment curve using the Eq (2), where Ci is the plasma concentration measured at t1. AUMC0→t=∑i=1n((ti∙Ci+ti+1∙Ci+1)/2)∙(ti+1−ti). […]
# [1] = hippocampus, 0.625 mg/kg, read-out: Concentration, hippocampus (individual animals)
# [2] = hippocampus, 0.625 mg/kg, read-out: Concentration, hippocampus (Mean)
# [3] = plasma, 0.625 mg/kg, read-out: Concentration, plasma (Mean)
# [4] = plasma, 0.625 mg/kg, read-out: Concentration, plasma (individual animals)
# [5] = striatum, 0.625 mg/kg, read-out: Concentration, striatum (Mean)
# [6] = striatum, 0.625 mg/kg, read-out: Concentration, striatum (individual animals)
smiles,measurement,setting,value
"Cn1c(=O)c2c(nc3n(CCCCN4CCN(c5ccccc5F)CC4)ccn23)n(C)c1=O [AZ-853, 8-(4-(4-(2-fluorophenyl)piperazin-1-yl)butyl)-1,3-dimethyl-1H-imidazo[2,1-f]purine-2,4(3H,8H)-dione]",concentration at 5 min,[1],205 ng/mL
same,concentration at 15 min,[2],271 ng/mL
same,concentration at 15 min,[1],228 ng/mL
same,concentration at 30 min,[2],125 ng/mL
same,concentration at 30 min,[1],125 ng/mL
same,concentration at 60 min,[2],44.3 ng/mL
same,concentration at 60 min,[1],38.9 ng/mL
same,concentration at 120 min,[2],12.6 ng/mL
same,concentration at 120 min,[1],14.1 ng/mL
same,concentration at 240 min,[2],8.83 ng/mL
same,concentration at 240 min,[1],9.85 ng/mL
same,concentration at 480 min,[2],2.07 ng/mL
same,Cmax,"hippocampus, 0.625 mg/kg, read-out: Cmax, hippocampus",272 ng/g
same,Tmax,"hippocampus, 0.625 mg/kg, read-out: tmax, hippocampus (converted)",15 min
same,CL/F,plasma,570 mL/min/kg
same,AUC(0-t),"plasma, read-out: AUC0→t, plasma (converted)",17.7 ng·h/mL
same,MRT,"plasma, read-out: MRT, plasma (converted)",85.8 min
same,concentration at 5 min,[3],23.1 ng/mL
same,concentration at 5 min,[4],25.4 ng/mL
same,concentration at 15 min,[3],13.4 ng/mL
same,concentration at 15 min,[4],12.2 ng/mL
same,concentration at 30 min,[3],7.76 ng/mL
same,concentration at 30 min,[4],9.11 ng/mL
same,concentration at 60 min,[3],1.78 ng/mL
same,concentration at 120 min,[3],4.08 ng/mL
same,concentration at 120 min,[4],3.22 ng/mL
same,concentration at 240 min,[3],0.38 ng/mL
same,concentration at 480 min,[3],0.29 ng/mL
same,concentration at 480 min,[4],0.25 ng/mL
same,Vd/F,"plasma, 0.625 mg/kg, plasma, read-out: Vd/F",> 67 L/kg
same,Cmax,"plasma, 0.625 mg/kg, read-out: Cmax, plasma",23.1 ± 16 ng/mL
same,Tmax,"plasma, 0.625 mg/kg, read-out: tmax, plasma",≤ 5 min
same,Kp,"striatum, ratio of AUC values, read-out: Brain structure-to-plasma concentration ratio, striatum (S/P)",19.9
same,AUC(0-t),"striatum, read-out: AUC0→t, striatum (converted)",352 ng·h/mL
same,MRT,"striatum, read-out: MRT, striatum (converted)",56.3 min
same,concentration at 5 min,[5],337 ng/mL
same,concentration at 5 min,[6],290 ng/mL
same,concentration at 15 min,[5],404 ng/mL
same,concentration at 15 min,[6],398 ng/mL
same,concentration at 30 min,[5],262 ng/mL
same,concentration at 30 min,[6],307 ng/mL
same,concentration at 60 min,[5],65.5 ng/mL
same,concentration at 60 min,[6],78.3 ng/mL
same,concentration at 120 min,[5],40.9 ng/mL
same,concentration at 120 min,[6],48.7 ng/mL
same,concentration at 240 min,[5],5.58 ng/mL
same,concentration at 480 min,[5],1.4 ng/mL
same,Cmax,"striatum, 0.625 mg/kg, read-out: Cmax, striatum",404 ng/g
same,Tmax,"striatum, 0.625 mg/kg, read-out: tmax, striatum (converted)",15 min
